One assay has as its system HIV-1 BaL. As to the kind of experiment: HIV-1 BaL replication in PBMCs, p24 antigen ELISA. The format is cell-based. Conditions: for pIC50: Human immunodeficiency virus 1, BAL, PBMC. Here is the method: To examine the effect of compounds on viral replication, studies were carried out in peripheral blood mononuclear cells (PBMCs). PBMCs were isolated from healthy (HIV-uninfected) volunteer blood donors as described by Dobson-Belaire et al.. Informed consent was obtained from participants in accordance with the guidelines for conduct of clinical research at the University of Toronto and St. Michael’s Hospital, Toronto, Ontario, Canada. Stored PBMCs were thawed, washed with RPMI 1640 complete medium and cultured in RPMI 1640 complete medium containing 2 μg/mL of PHA-L (Sigma-Aldrich) and 20 U/mL of IL-2 (BD Pharmingen) for 72 h. Subsequently, cells were counted and a portion of the cells was separated to another tube for uninfected control treatments. The remaining PBMCs were resuspended in media containing HIV-1 BaL at a multiplicity of infection (MOI) of approximately 0.01 and infected by spinoculation, following which cells were washed twice with room temperature RPMI 1640 complete medium and resuspended to a concentration of 5 × 10^5 cells/mL in complete RPMI 1640 containing 20 U/mL of IL-2. Compounds were added to infected PBMCs or uninfected control PBMCs. Azidothymidine (AZT, Sigma-Aldrich) was used as control treatment at a final concentration of 3.74 μM. On day 4 post infection, culture medium was replenished with the compounds and IL-2 in fresh complete RPMI 1640. On days 2, 4, 6 and 8 post infection, culture supernatant was harvested, virus lysed by adjusting to 1% TritonX-100 and stored at −20 °C for p24 antigen ELISA. A fraction of the culture was harvested to assess percent cell viability by trypan blue exclusion using Glasstic slides (Kova). Relative percent cell viability in compound treated samples versus DMSO-control treated samples was calculated as follows: (total viable cells/total cells)compound/(total viable cells/total cells)DMSO.
ELISA for p24 Gag antigen was performed on cell supernatants using kits purchased from Frederick National Laboratory for Cancer Research (Leidos) or XpressBio extended range kit and performed according to manufacturer’s instructions. Protein concentration in cell lysates was quantified by Bradford assay and equal amounts of protein run on 7, 10, 12, or 14% SDS-PAGE, depending on the protein of interest. Following transfer to PVDF (BioRad or Perkin-Elmer), blots were blocked in either 5% Milk-PBS-T (5% Milk, 0.05% Tween-20, 1× PBS) or 3% BSA-PBS-T (3% BSA, 0.05% Tween-20, 1× PBS) prior to incubating with primary antibody (all diluted in 3% BSA-PBS-T). […] Quantification of the relative intensity of the detected bands was done using ImageLab software and normalized to corresponding bands of the loading control (GAPDH or α-Tubulin).
(In an ELISA, binding on a coated surface is turned into a signal by an enzyme label.)

The test system of assay [1] is HIV-1 clade A (N54), clade B (IIIB), PRI-, RTI- and INI-resistant strains. As to the kind of experiment: HIV-1 replication in CEM-GXR cells (GFP positive cells, flow cytometry). The format is cell-based. The settings on record: for HIV-1 replication of all viruses tested: clade A N54, clade B IIIB, PRI-, RTI-, INI-resistant strains; for pIC50: Human immunodeficiency virus 1, IIIB, CEM-GXR. From the text: Effects of compound treatment on HIV-1 gene expression were initially assessed in the context of HeLa rtTA HIV∆Mls cells stably transduced with an inducible Tet-On HIV-1 system (as previously described). The provirus was modified by either deletion in the reverse transcriptase and integrase region of the pol gene by an MlsI restriction digest (HeLa rtTA HIV∆Mls cell line) or GFP fusion to Gag, deleting the PR and RT-coding regions (HeLa rtTA HIVGagGFP cell line). […] All cell lines were maintained in Iscove’s modified Delbecco’s medium (IMDM; Wisent) supplemented with 10% (vol/vol) fetal bovine serum (FBS, Wisent), 1% penicillin/streptomycin (P/S, Wisent) and 0.2% Amphotericin B (Wisent). Indicator cell line CEM-GXR was obtained from Dr. Mark Brockman (Simon Fraser University). The RTI-resistant virus (E00443) was obtained from Dr. Zabrina Brumme (Simon Fraser University). The HIV-1 clade A (97USSN54 (N54)), HIV-1 clade B (IIIB), integrase inhibitor resistant virus (11845), protease inhibitor resistant virus (2948) were obtained through the NIH AIDS Research and Reference reagent program, Division of AIDS, NIAID, NIH).
To assess the activity of compounds against HIV-1 strains having resistance to various ART drugs, assays were performed in the context of CEM-GXR cells. These cells express CD4, CXCR4, and coreceptor, CCR5 as well as an exogenous Tat-driven LTR-GFP expression cassette. Cultures were infected with different HIV-1 strains of interest, differing on their subtypes (A and B), and resistance to three major drug targets (reverse transcriptase, protease, and integrase). The culture contains serial dilutions of the molecule in the final concentrations from 0.156 to 5 μM for 833; 725 nM to 46.87 μM for 791; 1.95 to 62.5 μM for 892. Antiviral activity was evaluated in the assay by measuring inhibition of HIV-1 spread in a coculture of CEM-GXR cells containing 1% of HIV-1 infected (GFP positive) cells using flow cytometric analysis (GuavaSoft 2.2 software, Guava HT8, Millipore). To estimate the viable cell counts, the gate in a flow cytometer (Guava HT8) was set to cover 95% of the freshly passaged uninfected CEM-GXR cell or using ViaCount™. The same parameter was employed to gate viable cells in the inhibition assay and the number of gated cells was obtained by GuavaSoft 2.2 software. For assays using ViaCount™, sample acquisition and data analysis were performed with the selection of EasyFit analysis feature using the ViaCount™ software module.
In general terms: A flow cytometer gives signals particle by particle.

pIC50: −log10 of the molar value.

The pIC50 is the negative decadic logarithm of the IC50, by convention in mol/L. A low value points to a high IC50. Consider `COc1ccc(C=NNC(=O)c2ccccc2O)cc1O` [Compound 892, 2-hydroxy-N′-(3-hydroxy-4-methoxybenzylidene)benzohydrazide], for which the pIC50 with HIV-1 BaL is 5.70. Moreover, in assay [1], the “HIV-1 replication of all viruses tested” value is reported as “only modest inhibitory activity”.
`Cc1cc(NCc2cccnc2)n2ncc(-c3ccc(Cl)cc3)c2n1` [Compound 791, 3-(4-chlorophenyl)-5-methyl-N-(3-pyridinylmethyl)pyrazolo[1,5-a]pyrimidin-7-amine]: in the assay with HIV-1 BaL, the pIC50 is 5.82. Moreover, in the assay on HIV-1 BaL (PBMCs, 2–4 donors), the “doses inhibiting HIV-1 virus production that did not affect cell viability” value is less than 5 µM. Moreover, in assay [1], the pIC50 is 5.35 and the “HIV-1 replication of all viruses tested” value is on record as “significant reductions”.
As to `O=C(NC(=S)NNC(=O)c1ccccc1O)c1ccc(-c2ccccc2)cc1` [Compound 833, N-([2-(2-hydroxybenzoyl)hydrazino]carbonothioyl}-4-biphenylcarboxamide], the pIC50 in the assay with HIV-1 BaL is 5.80. For the same compound, in assay [1], the pIC50 was 6.00 and the “HIV-1 replication of all viruses tested” value was “significant reductions”.

These data come from article PMC5267425, “Identification of small molecule modulators of HIV-1 Tat and Rev protein accumulation” (Retrovirology, 2017).
